Each block holds one compound with its values, some of them ahead of it.
Columns and labels:
[1] = target: Free fatty acid receptor 1 (Rattus norvegicus, UniProt Q8K3T4); assay: Agonist activity at rat GPR40 expressed in HEK293 cells assessed as increase in intracellular Ca2+ flux by Fluo-4-AM dye based FLIPR assay; format: functional, cell-based
[2] = Antidiabetic activity in ZDF rat assessed as induction of glucose-stimulated insulin secretion; format: functional
[3] = target: T1, Free fatty acid receptor 1 (Homo sapiens, UniProt O14842); assay: Agonist activity at full length recombinant human GPR40 expressed in CHOK1 cells assessed as intracellular IP3 accumulation by fluorescence assay; format: functional, cell-based, CHO-K1
T1 sequence (O14842 whole entry): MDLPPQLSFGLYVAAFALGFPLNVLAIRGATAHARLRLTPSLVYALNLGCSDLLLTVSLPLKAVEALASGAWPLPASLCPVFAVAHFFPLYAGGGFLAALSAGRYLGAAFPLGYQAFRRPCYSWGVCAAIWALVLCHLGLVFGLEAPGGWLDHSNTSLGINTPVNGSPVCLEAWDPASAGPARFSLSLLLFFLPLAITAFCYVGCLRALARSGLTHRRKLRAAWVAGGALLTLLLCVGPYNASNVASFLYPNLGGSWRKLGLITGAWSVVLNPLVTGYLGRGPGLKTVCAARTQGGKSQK

[4] = target: T1, Free fatty acid receptor 1; assay: Agonist activity at flag-tagged human GPR40 expressed in HEK293 cells assessed as increase in intracellular Ca2+ flux by FLIPR assay; format: functional, cell-based
[5] = target: T1, Free fatty acid receptor 1; assay: Agonist activity at human GPR40 expressed in CHO cells coexpressing NFAT BLA assessed as increase in intracellular Ca2+ flux by fluo-4-AM dye based FLIPR assay; format: functional, cell-based
[6] = Half life in human; format: ADME
[7] = Oral bioavailability in mouse; format: ADME, organism-based; conditions: in vivo
[8] = Half life in iv or po dosed rat; format: ADME, organism-based; conditions: in vivo
[9] = Half life in iv or po dosed dog; format: ADME, organism-based, Canis lupus familiaris; conditions: in vivo
[10] = Half life in iv or po dosed mouse; format: ADME, organism-based; conditions: in vivo
[11] = Half life in iv or po dosed monkey; format: ADME, organism-based, Macaca mulatta; conditions: rhesus monkey, in vivo
[12] = Oral bioavailability in rat; format: ADME, organism-based; conditions: in vivo
[13] = Oral bioavailability in monkey; format: ADME, organism-based, Macaca mulatta; conditions: rhesus monkey, in vivo
[14] = Oral bioavailability in dog; format: ADME, organism-based, Canis lupus familiaris; conditions: in vivo
Mus musculus = assay: Antidiabetic activity in po dosed albino Balb/c mouse assessed as reduction in plasma glucose AUC administered qd for 3 days measured on day 4 administered 60 mins prior to glucose challenge measured up to 60 mins post glucose challenge by intraperitoneal glucose tolerance test; format: functional
Rattus norvegicus [15] = assay: Antidiabetic activity in po dosed Zucker fa/fa rat assessed as reduction in plasma glucose AUC administered for 21 days measuredon day 21 administered 1 hr prior to glucose challenge measured up to 120 mins post glucose challenge by oral glucose tolerance test; format: functional
[16] = target: T1, Free fatty acid receptor 1; assay: Agonist activity at human GPR40 expressed in HEK293 cells assessed as increase in intracellular Ca2+ flux by FLIPR assay relative to linoleic acid; format: functional, cell-based
Rattus norvegicus [17] = assay: Antidiabetic activity in po dosed Zucker fa/fa rat assessed as reduction in plasma glucose AUC administered 1 hr prior to glucose challenge measured up to 120 mins post glucose challenge by oral glucose tolerance test; format: functional
[18] = target: T1, Free fatty acid receptor 1; assay: Agonist activity at human GPR40 expressed in CHOK cells assessed as increase in intracellular Ca2+ flux by Fluo-4 based assay; format: functional, cell-based

Free fatty acid receptor 1 (Rattus norvegicus, UniProt Q8K3T4), sequence (Q8K3T4 whole entry): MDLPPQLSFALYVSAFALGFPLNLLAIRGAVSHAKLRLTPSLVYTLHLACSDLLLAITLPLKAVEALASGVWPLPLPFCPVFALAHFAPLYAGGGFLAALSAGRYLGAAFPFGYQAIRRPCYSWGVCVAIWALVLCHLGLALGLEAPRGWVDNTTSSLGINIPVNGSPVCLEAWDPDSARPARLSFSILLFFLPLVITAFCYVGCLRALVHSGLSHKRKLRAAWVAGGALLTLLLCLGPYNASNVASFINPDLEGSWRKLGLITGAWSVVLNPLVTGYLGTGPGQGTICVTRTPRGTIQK

SMILES: O=C(O)CCc1ccc2oc(Nc3c(Cl)c(Cl)cc(Cl)c3Cl)nc2c1
- EC50 [1]: 630 nM

SMILES: COc1ccc(C)c(N2CC[C@@H](Oc3ccc(N4N=C(C(F)(F)F)[C@@H](C)[C@@H]4CC(=O)O)cc3)[C@H](C)C2)c1
- EC50 [4]: 71 nM

SMILES: Cc1cc(OC[C@H]2COC(C)(C)O2)cc(C)c1-c1cccc(COc2ccc(-c3cc(O)no3)cc2)c1C
- EC50 [5]: < 300 nM

SMILES: Cc1cc(OCCC(C)O)cc(C)c1-c1ccc(F)c(COc2cc3c(cn2)[C@@H]2C(C(=O)O)[C@@H]2C3)c1 (stereo not given in full)
- EC50 [5]: 13 nM

SMILES: CCOc1ccc(F)c(N2CC[C@@H](Oc3cnc(N4CC(OC)[C@@H](C)[C@@H]4CC(=O)O)cn3)[C@H](C)C2)c1 (stereo not given in full)
- EC50 [4]: 42 nM

SMILES: CC#C[C@@H](CC(=O)O)c1ccc(OCc2ccc(CN3CCCc4cccc(OC)c43)s2)cc1
- ED50 (Mus musculus): 1 mg/kg

Continued, in another order:

- EC50 [1]: 10 nM
SMILES: CC#C[C@@H](CC(=O)O)c1ccc(OCCOc2cccc(Cl)c2)cc1

- EC50 [1]: 0.4 nM
SMILES: CC#C[C@@H](CC(=O)O)c1ccc(NC(=O)C(=O)Nc2cccc(C(C)(C)C)c2)cc1
- MED [2]: 1 mg/kg

- EC50 [3]: < 100 nM
SMILES: Cc1cc(OCC2CCOC2)cc(C)c1-c1cccc(COc2ccc(C3(CC(=O)O)COC3)cc2)c1 (stereo not given)

- EC50 [4]: 10 nM
SMILES: COc1ccc(F)c(-c2ccc(Cc3cccc(N4C[C@H](c5cccc(Cl)c5)C[C@@H]4CC(=O)O)c3)c(C)c2)c1

- half-life [6]: 28 to 30 h
SMILES: Cc1cc(OCCCS(C)(=O)=O)cc(C)c1-c1cccc(COc2ccc3c(c2)OC[C@H]3CC(=O)O)c1

- bioavailability [7]: 67 to 100%
- half-life [8]: 7.2 to 28 h
- half-life [9]: 7.2 to 28 h
- half-life [10]: 7.2 to 28 h
- half-life [11]: 7.2 to 28 h
- bioavailability [12]: 67 to 100%
- bioavailability [13]: 67 to 100%
- bioavailability [14]: 67 to 100%
SMILES: CC#C[C@@H](CC(=O)O)c1ccc(OCc2cccc(-c3ccc(C(F)(F)F)cc3)c2)cc1

- Emax [16]: 76%
SMILES: CC#C[C@@H](CC(=O)O)c1ccc(OCc2ccc3nc(-c4c(C)cccc4C)nn3c2)cc1
- ED90 (Rattus norvegicus [15]): 5 mg/kg
- ED90 (Rattus norvegicus [17]): 4.1 mg/kg

- EC50 [18]: < 10 nM
SMILES: CO/N=C(\COc1ccc(COc2ccc(C(C#N)CC(=O)O)cc2)cc1)c1ccc(F)cc1 (stereo not given)

- EC50 [5]: 380 nM
SMILES: Cc1cc(OCCO)ccc1-c1cccc(COc2ccc(Cn3oc(=O)[nH]c3=O)cc2)c1

— ChEMBL document CHEMBL3867481, “GPR40 agonists for the treatment of type 2 diabetes mellitus: The biological characteristics and the chemical space” (Bioorg Med Chem Lett, 2016)
